Measurements as given in patent publication US20100317621A1, “BETA-LACTAMASE INHIBITORS” (priority 2007, published 2010).

Tests used:
SHV-5 β-lactamase = molecular target: T1, SHV-5 β-lactamase (Klebsiella pneumoniae, UniProt P0A3M1); experiment: biochemical; type: biochemical, Escherichia coli; settings: crude enzyme extract, 10 min preincubation at 37° C., nitrocefin 100 μM, PBS pH 7.0; read-out: SHV-5 IC50 Range
T1 construct: The β-lactamases were extracted by four cycles of freezing and thawing followed by centrifugation; endogenous in cells; host or cells: Escherichia coli cells containing SHV-5 (crude freeze-thaw extract)
Description: (§1) Isolation of β-lactamases. Crude β-lactamase extracts were prepared from 20 ml overnight cultures with shaking. Escherichia coli cells containing SHV-5 or CTXM-15 and Enterobacter cloacae cells containing P99 were further diluted 10-fold and grown to mid-log phase (OD at 600 nm, 0.5-0.8) in Mueller-Hinton II (MH-II) broth at 37° C. The cells were pelleted at 5000 g, washed and resuspended in 2 mL PBS pH 7.0. The β-lactamases were extracted by four cycles of freezing and thawing followed by centrifugation. β-lactamase activity in the extracts was measured with the chromogenic cephalosporin nitrocefin. The amount of protein in each β-lactamase preparation was determined by the bicinchoninic acid (BCA) assay.
(§2) β-lactamase Inhibition. To determine the level of inhibition of β-lactamase enzymes, compounds were diluted in PBS at pH 7.0 to yield concentrations between 100 and 0.005 μM in microtiter plates. An equal volume of diluted enzyme stock was added, and the plates were incubated at 37° C. for 10 min. Nitrocefin solution was then dispensed as substrate into each well at a final concentration of 100 μM, and the plates were immediately read with the kinetic program at 486 nm for 10 min on the SPECTRAMAX® Plus^384 (high-throughput microplate spectrophotometer; Molecular Devices Corp., Sunnyvale, Calif.). Maximum rates of metabolism were then compared to those in control wells (without inhibitors), and percentages of enzyme inhibition were calculated for each concentration of inhibitor. The concentration of inhibitor needed to reduce the initial rate of hydrolysis of substrate by 50% (IC50) was calculated as the residual activity of β-lactamase at 486 nm using the SoftMax Pro 5.0 software (Molecular Devices Corp.).

P99 AmpC β-lactamase = molecular target: T2, P99 AmpC β-lactamase (Enterobacter cloacae, UniProt P05364); experiment: biochemical; type: biochemical; settings: crude enzyme extract, 10 min preincubation at 37° C., nitrocefin 100 μM, PBS pH 7.0; read-out: P99 AmpC IC50 Range
T2 construct: The β-lactamases were extracted by four cycles of freezing and thawing followed by centrifugation; endogenous in cells; host or cells: Enterobacter cloacae cells containing P99 (crude freeze-thaw extract)
Description: as §1, §2

CTXM-15 β-lactamase = molecular target: T3, CTXM-15 β-lactamase (Escherichia coli, UniProt Q9EXV5); experiment: biochemical; type: biochemical; settings: crude enzyme extract, 10 min preincubation at 37° C., nitrocefin 100 μM, PBS pH 7.0; read-out: CTXM-15 IC50 Range
T3 construct: The β-lactamases were extracted by four cycles of freezing and thawing followed by centrifugation; endogenous in cells; host or cells: Escherichia coli cells containing CTXM-15 (crude freeze-thaw extract)
Description: as §1, §2

[1] = system: E. coli expressing the Class A ESBL CTX-M-15; type: cell-based; settings: in the presence of fixed 8 μg/mL cefotaxime; CAMHB, 16-20 hours at 37° C.
Text: (§3) To determine the ability of test compounds to potentiate the inhibition of the growth of bacterial strains producing beta-lactamase enzymes, classic cell based screening assays were employed. Four bacteria strains producing beta-lactamase enzymes were used: E. coli expressing the Class A Extended Spectrum Beta-Lactamase (ESBL) CTX-M-15, E. coli expressing the Class A ESBL SHV-5, E. cloacae expressing the Class C P99+, and K. pneumoniae expressing the Class A carbapenemase KPC-2. In order to evaluate the ability of test compounds to inhibit beta-lactamase activity, Applicants used a modification of the broth microdilution assay. The assay was conducted in Cation Adjusted Mueller Hinton Broth (CAMHB, BD #212322, BD Diagnostic Systems, Sparks, Md.). Bacteria strains were grown for 3-5 hours in CAMBH broth. All four strains were grown in presence of 50 μg/mL ampicillin to ensure resistance is maintained. In the meantime, test compounds were diluted in DMSO to a 0.1 mg/mL stock. The compounds were added to a microtiter plate and were diluted in 2-fold serial dilutions in CAMHB in a final concentration range of 32 μg/mL to 0.25 μg/mL. An overlay of CAMHB containing a cephalosporin was added to the compounds at a final static concentration of 8 μg/mL. […] Each of these compound plates are made in quadruplicate, one for each bacteria strain. In addition to the titration of test compounds the MICs of a panel of cephalosporins is also tested to ensure the strains are behaving consistently from test to test. Once the test compound and cephalosporin are added the plates can be inoculated. Inocula are conducted according to CLSI broth microdilution method. After inoculation the plates are incubated for 16-20 hours at 37° C. then the Minimal Inhibitory Concentration (MIC) of the test compound is determined visually.
(§4) Using the methodology described above, examples of the current invention were evaluated for their ability to inhibit the growth of β-lactamase producing bacteria in the presence of a β-lactam antibiotic.

[2] = system: K. pneumoniae expressing the Class A carbapenemase KPC-2; type: cell-based; settings: in the presence of fixed 8 μg/mL ceftazidime; CAMHB, 16-20 hours at 37° C.
Text: as §3, §4

[3] = system: E. coli expressing the Class A ESBL SHV-5; type: cell-based; settings: in the presence of fixed 8 μg/mL ceftazidime; CAMHB, 16-20 hours at 37° C.
Text: as §3, §4

[4] = system: E. cloacae expressing the Class C P99+; type: cell-based; settings: in the presence of fixed 8 μg/mL ceftazidime; CAMHB, 16-20 hours at 37° C.
Text: as §3, §4

T1 sequence (P0A3M1 22-286): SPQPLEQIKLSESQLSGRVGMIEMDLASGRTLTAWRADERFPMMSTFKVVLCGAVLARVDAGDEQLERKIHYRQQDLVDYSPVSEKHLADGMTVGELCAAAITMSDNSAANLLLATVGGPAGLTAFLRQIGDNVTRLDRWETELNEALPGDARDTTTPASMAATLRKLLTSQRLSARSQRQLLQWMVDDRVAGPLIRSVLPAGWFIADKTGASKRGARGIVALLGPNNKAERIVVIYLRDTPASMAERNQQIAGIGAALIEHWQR
T3 sequence (Q9EXV5 29-291): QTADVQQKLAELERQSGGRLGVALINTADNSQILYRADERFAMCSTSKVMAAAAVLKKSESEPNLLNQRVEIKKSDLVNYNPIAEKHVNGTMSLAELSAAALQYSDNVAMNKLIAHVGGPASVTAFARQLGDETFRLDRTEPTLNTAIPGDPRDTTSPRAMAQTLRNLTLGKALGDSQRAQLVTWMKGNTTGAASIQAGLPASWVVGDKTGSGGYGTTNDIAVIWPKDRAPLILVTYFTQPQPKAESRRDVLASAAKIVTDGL
T2 sequence (P05364 21-381): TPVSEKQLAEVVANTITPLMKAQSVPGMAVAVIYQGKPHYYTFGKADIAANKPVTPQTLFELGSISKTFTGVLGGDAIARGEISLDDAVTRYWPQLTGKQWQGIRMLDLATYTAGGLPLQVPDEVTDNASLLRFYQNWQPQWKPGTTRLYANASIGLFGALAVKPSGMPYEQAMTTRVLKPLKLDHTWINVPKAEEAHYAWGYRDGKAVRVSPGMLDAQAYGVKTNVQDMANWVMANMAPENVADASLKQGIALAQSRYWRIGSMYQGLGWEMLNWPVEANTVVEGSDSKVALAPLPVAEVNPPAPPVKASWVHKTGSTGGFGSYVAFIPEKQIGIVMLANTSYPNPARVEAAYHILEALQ

Row | SMILES | IC50 (SHV-5 β-lactamase) | IC50 (P99 AmpC β-lactamase) | IC50 (CTXM-15 β-lactamase) | MIC of example compound, E. coli CTXM-15 + 8 μg/mL TAX [1] | MIC of example compound, K. pneumoniae KPC-2 + 8 μg/mL CAZ [2] | MIC of example compound, E. coli SHV-5 + 8 μg/mL CAZ [3] | MIC of example compound, E. cloacae P99+ + 8 μg/mL CAZ [4]
1 | O=C(Cc1ccsc1)N[C@@H](Cc1cccc(C(=O)O)c1)B(O)O [Example 29, (1R)-1-(2-thiophene-3-yl-acetylamino)-2-(3-carboxyphenyl)ethyl-1-boronic acid] | < 100 nM | 100 to 1000 nM | 100 to 1000 nM | C (C represents an MIC of <2 μg/mL) | B (B represents an MIC between 2 and 32 μg/mL) | 8 µg/mL | A (A represents an MIC>32 μg/mL)
2 | O=C(CCC(=O)c1cccs1)N[C@@H](Cc1cccc(C(=O)O)c1)B(O)O [Example 12, (1R)-1-(4-Oxo-4-thiophen-2-yl-butyrylamino)-2-(3-carboxyphenyl)ethyl-1-boronic acid] | 100 to 1000 nM | < 100 nM | 100 to 1000 nM | B (B represents an MIC between 2 and 32 μg/mL) | B (B represents an MIC between 2 and 32 μg/mL) | B (B represents an MIC between 2 and 32 μg/mL) | B (B represents an MIC between 2 and 32 μg/mL)
3 | COc1ccc(CC(=O)N[C@@H](Cc2cccc(C(=O)O)c2)B(O)O)cc1OC [Example 11, (1R)-1-(3,4-Dimethoxyphenylacetylamino)-2-(3-carboxyphenyl)ethyl-1-boronic acid] | < 100 nM | 100 to 1000 nM | < 100 nM | B (B represents an MIC between 2 and 32 μg/mL) | A (A represents an MIC>32 μg/mL) | B (B represents an MIC between 2 and 32 μg/mL) | B (B represents an MIC between 2 and 32 μg/mL)
4 | O=C(CCC(=O)C1CC1)N[C@@H](Cc1cccc(C(=O)O)c1)B(O)O [Example 36, (1R)-1-(4-Cyclopropyl-4-oxo-butyrylamino)-2-(3-carboxyphenyl)ethyl-1-boronic acid] | > 1000 nM | > 1000 nM |  | B (B represents an MIC between 2 and 32 μg/mL) |  | B (B represents an MIC between 2 and 32 μg/mL) | B (B represents an MIC between 2 and 32 μg/mL)
5 | NCCOc1cccc(CC(=O)N[C@@H](Cc2cccc(C(=O)O)c2)B(O)O)c1 [Example 30, (1R)-1-{2-[3-(2-Amino-ethoxy)-phenyl]-acetylamino}-2-(3-carboxyphenyl)ethyl-1-boronic acid] | 100 to 1000 nM | 100 to 1000 nM | < 100 nM | B (B represents an MIC between 2 and 32 μg/mL) | B (B represents an MIC between 2 and 32 μg/mL) | B (B represents an MIC between 2 and 32 μg/mL) | B (B represents an MIC between 2 and 32 μg/mL)
6 | COc1cccc(CC(=O)N[C@@H](Cc2cccc(C(=O)O)c2)B(O)O)c1 [Example 2, (1R)-1-(3-Methoxyphenylacetylamino)-2-(3-carboxyphenyl)ethyl-1-boronic acid] | < 100 nM | 100 to 1000 nM | < 100 nM | B (B represents an MIC between 2 and 32 μg/mL) | B (B represents an MIC between 2 and 32 μg/mL) | B (B represents an MIC between 2 and 32 μg/mL) | A (A represents an MIC>32 μg/mL)
7 | O=C(Cc1cccs1)N[C@@H](Cc1cccc(C(=O)O)c1)B(O)O [Example 1, (1R)-1-(2-thiophene-2-yl-acetylamino)-2-(3-carboxyphenyl)ethyl-1-boronic acid] | < 100 nM | 100 to 1000 nM | < 100 nM | B (B represents an MIC between 2 and 32 μg/mL) | C (C represents an MIC of <2 μg/mL) | B (B represents an MIC between 2 and 32 μg/mL) | B (B represents an MIC between 2 and 32 μg/mL)
8 | O=C(Cc1cccc(O)c1)N[C@@H](Cc1cccc(C(=O)O)c1)B(O)O [Example 22, (1R)-1-(3-Hydroxyphenylacetylamino)-2-(3-carboxyphenyl)ethyl-1-boronic acid] | < 100 nM | 100 to 1000 nM | < 100 nM | B (B represents an MIC between 2 and 32 μg/mL) | B (B represents an MIC between 2 and 32 μg/mL) | C (C represents an MIC of <2 μg/mL) | B (B represents an MIC between 2 and 32 μg/mL)
9 | O=C(Cc1ccc(O)cc1)N[C@@H](Cc1cccc(C(=O)O)c1)B(O)O [Example 34, (1R)-1-(4-Hydroxyphenylacetylamino)-2-(3-carboxyphenyl)ethyl-1-boronic acid] | < 100 nM | < 100 nM | 100 to 1000 nM | B (B represents an MIC between 2 and 32 μg/mL) |  | B (B represents an MIC between 2 and 32 μg/mL) | B (B represents an MIC between 2 and 32 μg/mL)
10 | O=C(Cc1cccs1)N[C@@H](Cc1ccc(F)c(C(=O)O)c1)B(O)O [Example 21, (1R)-1-(2-thiophene-2-yl-acetylamino)-2-(3-carboxy-4-fluorophenyl)ethyl-1-boronic acid] | < 100 nM | 100 to 1000 nM | < 100 nM | C (C represents an MIC of <2 μg/mL) | B (B represents an MIC between 2 and 32 μg/mL) | C (C represents an MIC of <2 μg/mL) | B (B represents an MIC between 2 and 32 μg/mL)
11 | NC(=O)COc1cccc(CC(=O)N[C@@H](Cc2cccc(C(=O)O)c2)B(O)O)c1 [Example 33, (1R)-1-[2-(3-Carbamoylmethoxy-phenyl)-acetylamino}-2-(3-carboxyphenyl)ethyl-1-boronic acid] | < 100 nM | 100 to 1000 nM | < 100 nM | B (B represents an MIC between 2 and 32 μg/mL) |  | B (B represents an MIC between 2 and 32 μg/mL) | B (B represents an MIC between 2 and 32 μg/mL)
